Activity calls are given as the source filed them. The calls are words filed in the database; no cut-off is given here. A value given as a limit tells only on which side of the number the result lay.

In assay [1] the test system is HCT-116. Description: Induction of cell cycle arrest in human HCT116 cells assessed as accumulation at G2/M phase at 2.6 to 19.8 uM after 24 hrs by propidium iodide-staining based flow cytometry relative to control. Type of assay: functional.
In assay [2] the target is T1, Aurora kinase A (Homo sapiens, UniProt O14965).
T1 sequence (O14965 whole entry): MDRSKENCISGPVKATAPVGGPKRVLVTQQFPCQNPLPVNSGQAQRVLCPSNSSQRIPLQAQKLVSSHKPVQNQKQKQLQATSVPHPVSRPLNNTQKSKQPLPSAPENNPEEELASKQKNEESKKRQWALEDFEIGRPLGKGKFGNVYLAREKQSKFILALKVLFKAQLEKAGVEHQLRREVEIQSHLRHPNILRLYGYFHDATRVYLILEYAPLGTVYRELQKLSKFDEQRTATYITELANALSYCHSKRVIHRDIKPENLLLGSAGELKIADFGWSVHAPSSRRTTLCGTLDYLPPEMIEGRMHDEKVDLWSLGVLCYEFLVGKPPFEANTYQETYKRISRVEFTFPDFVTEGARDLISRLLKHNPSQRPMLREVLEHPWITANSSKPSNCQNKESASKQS
The experiment in a line: Inhibition of GST-tagged AURORA A (unknown origin) expressed in baculovirus infected Sf9 cells using MBP as substrate.

For assay [3], the target named is CDK2/Cyclin A2 (Homo sapiens, UniProt P24941).
Assay [4] addresses Cyclin-dependent kinase 1/cyclin B1 (Homo sapiens, UniProt P06493). Description: biochemical.
In assay [5] the target is Cyclin-dependent kinase 2/cyclin E1 (Homo sapiens, UniProt P24941). The experiment in a line: biochemical.
The target in assay [6] is Cyclin-dependent kinase 4/cyclin D1 (Homo sapiens, UniProt P11802). The experiment in a line: biochemical.
Assay [7] addresses Cyclin-dependent kinase 5/CDK5 activator 1 (Homo sapiens, UniProt Q00535). Description: biochemical.
Assay [8] addresses CDK7/Cyclin H/MNAT1 (Homo sapiens, UniProt P50613). Description: biochemical.
The target in assay [9] is CDK9/cyclin T1 (Homo sapiens, UniProt P50750). The experiment in a line: biochemical.
Assay [10] addresses Aurora kinase B (Homo sapiens, UniProt Q96GD4). Description: biochemical.
The subject of assay [11] is HCT-116. The experiment in a line: Induction of cell cycle arrest in human HCT116 cells assessed as accumulation at G2/M phase at 0.2 to 13.2 uM after 24 hrs by propidium iodide-staining based flow cytometry relative to control. The format is functional.
Assay [12] addresses T2, Cyclin-dependent kinase 5/CDK5 activator 1 (Homo sapiens) (UniProt Q00535+Q15078). Description: Inhibition of CDK5/p25 in human HCT116 cells assessed as induction of dephosphorylation of FAK at Ser732 residue at 1 to 5 uM after 24 hrs by Western blot analysis. Type of assay: cell-based.
For assay [13], the system named is HCT-116. The experiment in a line: Induction of cell cycle arrest in CDK2 knocked out human HCT116 cells assessed as accumulation at G2/M phase at 0.8 to 5.9 after 24 hrs by propidium iodide-staining based flow cytometry. The format is functional.
For assay [14], the system named is HCT-116. Description: Induction of cell cycle arrest in human HCT116 cells assessed as accumulation at G2/M phase at 0.07 to 0.8 uM after 24 hrs by propidium iodide-staining based flow cytometry relative to control. Type of assay: functional.
Assay [15] has as its target T2, Cyclin-dependent kinase 5/CDK5 activator 1 (Homo sapiens). Description: Inhibition of CDK5/p25 in human HCT116 cells assessed as induction of dephosphorylation of FAK at Ser732 residue at 0.5 to 1 uM after 24 hrs by Western blot analysis. The format is cell-based.
Assay [16] deals with Cyclin-dependent kinase 7 (Homo sapiens) (UniProt P50613). Description: Inhibition of CDK7 in human HCT116 cells assessed as induction of dephosphorylation of RNA polymerase 2 S2/S5 residues at 0.5 to 1 uM after 24 hrs by Western blot analysis. The format is cell-based.
For assay [17], the target named is Cyclin-dependent kinase 9 (Homo sapiens) (UniProt P50750). The experiment in a line: Inhibition of CDK9 in human HCT116 cells assessed as induction of dephosphorylation of RNA polymerase 2 S2/S5 residues at 0.5 to 1 uM after 24 hrs by Western blot analysis. The format is cell-based.
For assay [18], the system named is HCT-116. Description: Induction of cell cycle arrest in CDK2 knocked out human HCT116 cells assessed as accumulation at G2/M phase at 0.5 to 3.9 after 24 hrs by propidium iodide-staining based flow cytometry. The format is functional.
Assay [19] relates to HCT-116. Description: Induction of cell cycle arrest in human HCT116 cells assessed as reduction in accumulation at G1 phase 1.25 to 20 uM after 24 hrs by propidium iodide-staining based flow cytometry. Type of assay: functional.
For assay [20], the system named is HCT-116. Description: Induction of cell cycle arrest in human HCT116 cells assessed as accumulation at G2/M phase 1.25 to 20 uM after 24 hrs by propidium iodide-staining based flow cytometry relative to control. The format is functional.
In assay [21] the test system is HCT-116. Description: Induction of cell cycle arrest in human HCT116 cells assessed as reduction in accumulation at G1 phase 2.6 to 29.6 uM after 24 hrs by propidium iodide-staining based flow cytometry. The format is functional.
For assay [22], the system named is HCT-116. Description: Induction of cell cycle arrest in human HCT116 cells assessed as accumulation at G2/M phase 2.6 to 29.6 uM after 24 hrs by propidium iodide-staining based flow cytometry relative to control. The format is functional.
Assay [23] concerns HCT-116. Description: Induction of cell cycle arrest in human HCT116 cells assessed as reduction in accumulation at G1 phase at 8.8 to 100 uM after 24 hrs by propidium iodide-staining based flow cytometry. Also noted: scale not given: the % may be the effect or the level left. Type of assay: functional.
In assay [24] the test system is HCT-116. Description: Induction of cell cycle arrest in CDK2 knocked out human HCT116 cells assessed as accumulation at G2/M phase at 100 to 500 nM after 24 hrs by propidium iodide-staining based flow cytometry. The format is functional.
For assay [25], the target named is T2, Cyclin-dependent kinase 5/CDK5 activator 1 (Homo sapiens). The experiment in a line: Inhibition of CDK5/p25 in human HCT116 cells assessed as induction of dephosphorylation of FAK at Ser732 residue at 10 to 50 uM after 24 hrs by Western blot analysis. Type of assay: cell-based.
Assay [26] deals with HCT-116. Description: Induction of cell cycle arrest in CDK2 knocked out human HCT116 cells assessed as accumulation at G2/M phase at 13.2 to […] after 24 hrs by propidium iodide-staining based flow cytometry. Type of assay: functional.
For assay [27], the system named is HCT-116. The experiment in a line: Induction of cell cycle arrest in human HCT116 cells assessed as reduction in accumulation at G1 phase at 0.5 to 5.9 uM after 24 hrs by propidium iodide-staining based flow cytometry. Type of assay: functional. Also noted: scale not given: the % may be the effect or the level left.
The target of assay [28] is Cyclin-dependent kinase 4 (Homo sapiens) (UniProt P11802). Description: Inhibition of CDK4 (unknown origin) at 10 uM.
For assay [29], the target named is Cyclin-dependent kinase 6 (Homo sapiens) (UniProt Q00534). The experiment in a line: Inhibition of CDK6 (unknown origin) at 10 uM.
Assay [30] deals with HCT-116. The experiment in a line: Induction of cell cycle arrest in human HCT116 cells assessed as reduction in accumulation at G1 phase at 0.15 to […] after 24 hrs by propidium iodide-staining based flow cytometry. Type of assay: functional.
The test system of assay [31] is HCT-116. Description: Induction of cell cycle arrest in human HCT116 cells assessed as accumulation at G2/M phase at 0.15 to […] after 24 hrs by propidium iodide-staining based flow cytometry relative to control. The format is functional.
Assay [32] has as its system HCT-116. The experiment in a line: Induction of cell cycle arrest in human HCT116 cells assessed as accumulation at G2/M phase at 0.05 to 0.5 uM after 24 hrs by propidium iodide-staining based flow cytometry relative to control. The format is functional.
Assay [33] deals with T2, Cyclin-dependent kinase 5/CDK5 activator 1 (Homo sapiens). Description: Inhibition of CDK5/p25 in human HCT116 cells assessed as induction of dephosphorylation of FAK at Ser732 residue at 250 to 500 nM after 24 hrs by Western blot analysis. Type of assay: cell-based.
Assay [34] addresses Cyclin-dependent kinase 7 (Homo sapiens) (UniProt P50613). Description: Inhibition of CDK7 in human HCT116 cells assessed as induction of dephosphorylation of RNA polymerase 2 S2/S5 residues at 250 to 500 nM after 24 hrs by Western blot analysis. The format is cell-based.
For assay [35], the target named is Cyclin-dependent kinase 9 (Homo sapiens) (UniProt P50750). The experiment in a line: Inhibition of CDK9 in human HCT116 cells assessed as induction of dephosphorylation of RNA polymerase 2 S2/S5 residues at 250 to 500 nM after 24 hrs by Western blot analysis. The format is cell-based.

CDK7/Cyclin H/MNAT1, sequence (P51946 whole entry): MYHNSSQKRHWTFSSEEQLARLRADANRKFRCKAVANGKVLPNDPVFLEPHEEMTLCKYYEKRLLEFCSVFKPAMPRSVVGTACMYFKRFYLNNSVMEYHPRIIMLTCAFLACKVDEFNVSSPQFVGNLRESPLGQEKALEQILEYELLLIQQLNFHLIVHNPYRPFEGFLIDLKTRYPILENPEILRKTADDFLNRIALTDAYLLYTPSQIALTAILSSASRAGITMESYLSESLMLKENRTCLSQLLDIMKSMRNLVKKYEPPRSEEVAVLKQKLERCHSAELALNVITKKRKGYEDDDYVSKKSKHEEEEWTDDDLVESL
CDK7/Cyclin H/MNAT1, sequence (P50613 whole entry): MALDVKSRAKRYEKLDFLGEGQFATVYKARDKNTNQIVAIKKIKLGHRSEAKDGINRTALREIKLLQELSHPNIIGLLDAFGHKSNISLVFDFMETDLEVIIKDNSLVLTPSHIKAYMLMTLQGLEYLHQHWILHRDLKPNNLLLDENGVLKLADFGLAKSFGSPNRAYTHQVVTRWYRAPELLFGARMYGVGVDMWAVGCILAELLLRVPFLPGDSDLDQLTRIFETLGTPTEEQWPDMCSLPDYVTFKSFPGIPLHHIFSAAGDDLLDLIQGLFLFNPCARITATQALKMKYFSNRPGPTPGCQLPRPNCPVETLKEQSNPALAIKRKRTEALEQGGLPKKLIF
CDK7/Cyclin H/MNAT1, sequence (P51948 whole entry, further chain): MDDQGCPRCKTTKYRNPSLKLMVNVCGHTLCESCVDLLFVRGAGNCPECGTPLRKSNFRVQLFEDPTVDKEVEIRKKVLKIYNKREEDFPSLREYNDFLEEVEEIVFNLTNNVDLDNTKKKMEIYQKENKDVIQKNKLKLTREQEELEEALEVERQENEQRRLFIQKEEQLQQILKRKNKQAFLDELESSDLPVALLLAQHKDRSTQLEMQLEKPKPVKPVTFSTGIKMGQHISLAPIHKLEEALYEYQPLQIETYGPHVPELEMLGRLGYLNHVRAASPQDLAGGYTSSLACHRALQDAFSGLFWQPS
T2 sequence (Q00535 whole entry): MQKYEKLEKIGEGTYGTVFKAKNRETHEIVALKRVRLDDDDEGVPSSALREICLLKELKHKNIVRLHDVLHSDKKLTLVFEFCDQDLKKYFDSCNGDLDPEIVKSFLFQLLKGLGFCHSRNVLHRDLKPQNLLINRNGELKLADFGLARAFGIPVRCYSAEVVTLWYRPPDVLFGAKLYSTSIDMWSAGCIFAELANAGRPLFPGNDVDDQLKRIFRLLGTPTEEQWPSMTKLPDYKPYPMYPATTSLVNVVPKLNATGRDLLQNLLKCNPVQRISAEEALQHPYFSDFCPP
T2 sequence (Q15078 99-307 partner limits assumed): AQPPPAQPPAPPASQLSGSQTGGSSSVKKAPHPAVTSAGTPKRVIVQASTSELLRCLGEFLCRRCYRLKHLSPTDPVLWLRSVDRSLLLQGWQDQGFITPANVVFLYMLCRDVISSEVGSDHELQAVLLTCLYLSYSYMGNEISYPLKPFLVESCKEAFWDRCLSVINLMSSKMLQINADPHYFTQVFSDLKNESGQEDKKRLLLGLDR
Cyclin-dependent kinase 5/CDK5 activator 1, sequence (Q00535 whole entry): as the sequence (Q00535 whole entry) above
Cyclin-dependent kinase 5/CDK5 activator 1, sequence (Q15078 whole entry, further chain): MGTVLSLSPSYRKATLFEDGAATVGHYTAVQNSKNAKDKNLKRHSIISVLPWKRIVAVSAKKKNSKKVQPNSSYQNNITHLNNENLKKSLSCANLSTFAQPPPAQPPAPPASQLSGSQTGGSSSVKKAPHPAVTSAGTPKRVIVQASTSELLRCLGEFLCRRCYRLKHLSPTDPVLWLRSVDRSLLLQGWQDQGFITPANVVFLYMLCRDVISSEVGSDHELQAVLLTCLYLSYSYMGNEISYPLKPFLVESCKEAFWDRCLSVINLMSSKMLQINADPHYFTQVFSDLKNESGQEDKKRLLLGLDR
Cyclin-dependent kinase 1/cyclin B1, sequence (P06493 whole entry): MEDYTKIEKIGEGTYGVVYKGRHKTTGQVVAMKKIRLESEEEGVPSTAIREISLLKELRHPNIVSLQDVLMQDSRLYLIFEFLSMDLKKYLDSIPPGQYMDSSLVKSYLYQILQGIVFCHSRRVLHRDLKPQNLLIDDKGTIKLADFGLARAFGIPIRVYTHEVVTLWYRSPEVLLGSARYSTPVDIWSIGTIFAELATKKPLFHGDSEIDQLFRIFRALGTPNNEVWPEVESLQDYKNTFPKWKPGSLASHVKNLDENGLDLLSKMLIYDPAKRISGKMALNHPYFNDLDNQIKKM
Cyclin-dependent kinase 1/cyclin B1, sequence (P14635 whole entry, further chain): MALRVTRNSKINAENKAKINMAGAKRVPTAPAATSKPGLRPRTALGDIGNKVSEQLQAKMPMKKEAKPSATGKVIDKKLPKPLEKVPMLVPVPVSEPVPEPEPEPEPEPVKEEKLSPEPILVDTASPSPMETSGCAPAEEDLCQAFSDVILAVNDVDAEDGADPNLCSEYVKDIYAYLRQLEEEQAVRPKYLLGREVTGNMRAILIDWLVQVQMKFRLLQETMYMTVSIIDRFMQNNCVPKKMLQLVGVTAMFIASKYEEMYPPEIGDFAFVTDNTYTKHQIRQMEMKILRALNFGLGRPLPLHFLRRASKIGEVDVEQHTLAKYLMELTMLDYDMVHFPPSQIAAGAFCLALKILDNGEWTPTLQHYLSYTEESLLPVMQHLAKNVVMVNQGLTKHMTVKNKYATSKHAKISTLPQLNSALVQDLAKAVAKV
CDK9/cyclin T1, sequence (O60563 whole entry): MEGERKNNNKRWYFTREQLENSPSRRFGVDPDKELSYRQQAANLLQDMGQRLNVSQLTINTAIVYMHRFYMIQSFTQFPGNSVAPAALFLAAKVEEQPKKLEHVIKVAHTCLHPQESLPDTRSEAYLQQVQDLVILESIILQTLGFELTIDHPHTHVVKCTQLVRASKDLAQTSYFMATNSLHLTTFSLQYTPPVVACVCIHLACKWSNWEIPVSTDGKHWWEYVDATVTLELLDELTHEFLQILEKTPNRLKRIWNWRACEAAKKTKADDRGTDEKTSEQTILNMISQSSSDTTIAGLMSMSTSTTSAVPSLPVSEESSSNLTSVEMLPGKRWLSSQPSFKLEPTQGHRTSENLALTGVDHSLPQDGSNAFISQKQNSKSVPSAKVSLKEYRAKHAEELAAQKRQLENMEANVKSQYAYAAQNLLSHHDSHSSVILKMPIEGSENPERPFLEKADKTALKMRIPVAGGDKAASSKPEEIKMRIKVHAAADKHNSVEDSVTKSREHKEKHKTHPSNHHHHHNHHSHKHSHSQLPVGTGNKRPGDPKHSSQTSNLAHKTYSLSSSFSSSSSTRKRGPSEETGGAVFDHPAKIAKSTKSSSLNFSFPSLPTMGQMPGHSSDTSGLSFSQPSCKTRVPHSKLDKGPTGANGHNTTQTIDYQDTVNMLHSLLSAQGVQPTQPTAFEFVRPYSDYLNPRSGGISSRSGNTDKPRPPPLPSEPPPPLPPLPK
CDK9/cyclin T1, sequence (P50750 whole entry): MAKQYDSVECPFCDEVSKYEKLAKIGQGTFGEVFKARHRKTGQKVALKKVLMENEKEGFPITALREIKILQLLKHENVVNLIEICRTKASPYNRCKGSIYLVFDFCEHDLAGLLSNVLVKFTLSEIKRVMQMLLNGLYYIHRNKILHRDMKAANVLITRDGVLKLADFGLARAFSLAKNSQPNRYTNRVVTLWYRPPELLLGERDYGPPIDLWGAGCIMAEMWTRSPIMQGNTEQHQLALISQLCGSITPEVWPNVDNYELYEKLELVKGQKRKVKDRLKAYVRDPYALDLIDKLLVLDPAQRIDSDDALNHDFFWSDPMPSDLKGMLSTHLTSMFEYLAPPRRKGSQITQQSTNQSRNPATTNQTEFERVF
Cyclin-dependent kinase 4/cyclin D1, sequence (P11802 whole entry): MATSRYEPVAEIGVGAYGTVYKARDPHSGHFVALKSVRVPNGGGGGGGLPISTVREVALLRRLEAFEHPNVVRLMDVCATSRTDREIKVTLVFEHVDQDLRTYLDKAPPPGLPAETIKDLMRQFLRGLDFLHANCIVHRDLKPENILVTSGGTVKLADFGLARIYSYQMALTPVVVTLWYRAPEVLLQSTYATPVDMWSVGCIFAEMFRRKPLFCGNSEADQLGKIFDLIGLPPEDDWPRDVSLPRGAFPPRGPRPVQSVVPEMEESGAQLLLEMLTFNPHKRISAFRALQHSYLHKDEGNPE
Cyclin-dependent kinase 4/cyclin D1, sequence (P24385 whole entry, further chain): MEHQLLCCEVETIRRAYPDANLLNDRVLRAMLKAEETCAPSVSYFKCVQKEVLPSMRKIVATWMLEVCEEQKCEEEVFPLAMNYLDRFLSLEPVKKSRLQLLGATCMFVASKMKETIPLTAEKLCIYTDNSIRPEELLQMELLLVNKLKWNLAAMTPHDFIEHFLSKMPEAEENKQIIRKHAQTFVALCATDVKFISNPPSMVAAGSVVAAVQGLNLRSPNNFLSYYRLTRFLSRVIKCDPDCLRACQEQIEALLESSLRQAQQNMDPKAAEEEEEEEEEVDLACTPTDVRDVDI
Cyclin-dependent kinase 9 (Homo sapiens), sequence (P50750 whole entry): as the sequence (P50750 whole entry) above
Cyclin-dependent kinase 7 (Homo sapiens), sequence (P50613 whole entry): as the sequence (P50613 whole entry) above
Cyclin-dependent kinase 4 (Homo sapiens), sequence (P11802 whole entry): as the sequence (P11802 whole entry) above

On to `O=C1Nc2ccccc2/C1=C\c1c(Cl)[nH]c2ccccc12`, for which the Activity entry in assay [1] is reported as “>=60%”. Further, the IC50 in assay [2] is greater than 20000 nM; in [3], 13200 nM; in assay [4], 6700 nM; in assay [5] it was 9400 nM; in assay [6], greater than 20000 nM; in [7] it was 5800 nM. For the same compound, the IC50 in [8] was 16000 nM; in assay [9], greater than 20000 nM; in [10], 15600 nM.
Take `CCCCOc1c(C(=O)c2c(F)cc(C)cc2F)c[nH]c2nncc1-2`: the Activity in [11] is given as 30 - 60%. Further, the inhibition entry in [12] is “Active”. For the same compound, the outcome in assay [13] was Active. Also, the IC50 stood at 71 nM in assay [3]; 14 nM in [4]; 6 nM in assay [5]; 222 nM in [6]; 258 nM in assay [7]; 1600 nM in assay [8]. The compound also registered a 50% inhibitory concentration (IC50) in assay [9] of 1800 nM.
Consider `OCCCNc1cc(-c2ccnc(Nc3cccc(Cl)c3)n2)ccn1`, for which the Activity result in assay [14] is “<=30%”. Also, the inhibition result in assay [15] is “Active”. The inhibition result in assay [16] and in assay [17] was “inactive” throughout. In [18], the outcome was Active. Further, the IC50 in assay [3] was determined as 4 nM; in [4], 26 nM; in assay [5], 3 nM; in assay [6], 216 nM; in assay [7] it was 10 nM; in assay [8], 200 nM.
For `O=C1NC(=O)c2c1c1c3ccccc3[nH]c1c1[nH]c3ccccc3c21` [STAUROSPORINE AGLYCON], the result in assay [19] was Active. In addition, the Activity entry in [20] is reported as “>=60%”. In addition, the IC50 in assay [3] is 135 nM; in [4] it was 964 nM; in [6] it was 199 nM; in assay [7] it was 936 nM; in [8], greater than 20000 nM; in assay [9] it was greater than 20000 nM.
Turning to `O=C1NC(=O)c2c1c1c3ccccc3[nH]c1c1[nH]c3cc(Br)ccc3c21`, the outcome in assay [21] was Active. For the same compound, the Activity result in [22] is “<=30%”. For the same compound, the IC50 in assay [3] was 185 nM; in [4], 1500 nM; in [5] it was 229 nM; in assay [6], 91 nM; in assay [7], 154 nM; in assay [8] it was greater than 20000 nM. Further, the IC50 in assay [9] was found to be 4000 nM.
As for `CC(C)c1cnc(NC(=O)Cc2ccccc2)s1`, the Activity entry in assay [23] was “<=30%”. Besides, the outcome in assay [24], in [13], in assay [18] and in assay [26] was Active. Further, in assay [25], the inhibition entry is “Active”. The IC50 in [3] amounted to 353 nM; in assay [4] it was 1700 nM; in assay [5] it was 195 nM; in [6] it was 20400 nM; in [7], 458 nM; in assay [8], 637 nM. Besides, the IC50 in assay [9] worked out at 3400 nM.
`CCCOc1cnc(CN/C=C2\C(=O)NC(=O)c3ccc(I)cc32)cc1O`: the Activity entry in assay [27] is “<=30%”. The inhibition result in assay [28] and in assay [29] was “Active” throughout. The 50% inhibitory concentration (IC50) in assay [3] was 71 nM; in assay [4] it was 290 nM; in [5], 501 nM; in [6], 38 nM; in assay [7] it was 1200 nM; in [8] it was greater than 20000 nM. The compound further returned a 50% inhibitory concentration (IC50) in assay [9] of 1000 nM.
As to `CN1CCN(c2ccc(Nc3ncc4cc(C#N)c(=O)n(C5CCCC5)c4n3)cc2)CC1` [NARAZACICLIB], the result in [30] was Active. Moreover, the Activity result in assay [31] is on record as “>=60%”. The IC50 in assay [3] turned out to be 55 nM; in assay [4], 600 nM; in assay [5] it was 377 nM; in [6], 18 nM; in [7], 272 nM; in assay [8], 6000 nM. The compound further yielded an IC50 in assay [9] of 117 nM.
For `Nc1nc(Nc2ccc(S(N)(=O)=O)cc2)nn1C(=S)Nc1c(F)cccc1F`, the Activity result in assay [32] is recorded as “>=60%”. Besides, in assay [33], the inhibition entry was “Active”. Further, the inhibition result in [34] and in assay [35] was “inactive” throughout. For the same compound, the result in [24] was Active. For the same compound, the 50% inhibitory concentration (IC50) was 2 nM in assay [4]; 59 nM in assay [6]; 0.2 nM in [7]; 66 nM in [8]; 30 nM in assay [9].

Values taken from ChEMBL document CHEMBL4308846, “How Selective Are Pharmacological Inhibitors of Cell-Cycle-Regulating Cyclin-Dependent Kinases?” (J Med Chem, 2018).
